Values joined by “and” are separate entries in the source; they are usually repeats but may differ in a detail not shown here. Identical values can stand only once.
Legend:
Assay type in all cases: ADME, organism-based
[1] = (§1) Mean pharmacokinetics parameters for Isotretinoin following single oral administration of Isotretinoin to healthy subjects.; parameters: dose 80 mg, route oral; settings: human, in vivo, dietary status Fed, dosed compound id 16, dosed compound name ISOTRETINOIN, regimen Single dose, tissue Plasma; for AUC: po, 80 mg
[2] = system: Homo sapiens; assay: as §1; parameters: dose 80 mg, route oral; settings: in vivo, po, dosed compound id 16, dosed compound name ISOTRETINOIN, regimen Single dose, tissue Plasma
[3] = (§2) Steady-state pharmacokinetic parameters of Isotretinoin following multiple oral administration of Isotretinoin to 38 pediatric patients, […], after a non-standardised meal.; parameters: route oral; settings: human, in vivo, dietary status Fed, dosed compound id 16, dosed compound name ISOTRETINOIN, regimen Multiple dose, tissue Plasma
[4] = system: Homo sapiens; assay: as §2; parameters: route oral; settings: in vivo, po, dietary status Fed, dosed compound id 16, dosed compound name ISOTRETINOIN, regimen Multiple dose, tissue Plasma
[5] = dietary status Fasting, dose 80 mg

AUC ([1]; read-out: AUC(0-12)): 3030 ng·h/mL
AUC ([1]; read-out: AUC(0-24)): 6000 ng·h/mL
Tmax ([1]; dose 80 mg, route oral): 5.3 h
half-life ([1]; dose 80 mg, route oral): 21 h
Tmax [2, 5]: 3.2 h
t1/2 [2, 5]: 21 h
AUC(0 to inf) ([2]; dietary status Fasting): 3700 ng·h/mL
Cmax ([2]; dietary status Fasting): 301 ng/mL
AUC(0 to inf) ([2]; dietary status Fed): 10000 ng·h/mL
Cmax ([2]; dietary status Fed): 862 ng/mL and 573.25 ng/mL
Tmax ([2]; dietary status Fed): 6 h
Cmax ([3]; po): 732 ng/mL
AUC ([3]; po, read-out: AUC(0-12)): 5080 ng·h/mL
CL/F ([3]; route oral): 299 mL/min
Tmax ([3]; route oral): 4 h
half-life ([3]; route oral): 15.7 h
Css min [4]: 352.32 ng/mL
Structure (SMILES): CC1=C(/C=C/C(C)=C/C=C/C(C)=C\C(=O)O)C(C)(C)CCC1 [ISOTRETINOIN]

Reference: ChEMBL document CHEMBL3832029, “DailyMed|setid=517810a4-76bb-4739-893f-1f2ba94a5d0c | ZENATANE -isotretinoin capsule, gelatine coated”
